Experimental data taken from patent publication US20040209799A1, “JAK/STAT pathway inhibitors and the uses thereof” (priority 2000, published 2004).

Tests used:
Format in all cases: biochemical
[1] = target: T1, ZAP-70 (ζ-associated polypeptide of 70 kDa) protein tyrosine kinase (Homo sapiens, UniProt P43403); assay: poly (Glu, Tyr) 4:1 ELISA, ZAP-70
T1 sequence (P43403 1-619): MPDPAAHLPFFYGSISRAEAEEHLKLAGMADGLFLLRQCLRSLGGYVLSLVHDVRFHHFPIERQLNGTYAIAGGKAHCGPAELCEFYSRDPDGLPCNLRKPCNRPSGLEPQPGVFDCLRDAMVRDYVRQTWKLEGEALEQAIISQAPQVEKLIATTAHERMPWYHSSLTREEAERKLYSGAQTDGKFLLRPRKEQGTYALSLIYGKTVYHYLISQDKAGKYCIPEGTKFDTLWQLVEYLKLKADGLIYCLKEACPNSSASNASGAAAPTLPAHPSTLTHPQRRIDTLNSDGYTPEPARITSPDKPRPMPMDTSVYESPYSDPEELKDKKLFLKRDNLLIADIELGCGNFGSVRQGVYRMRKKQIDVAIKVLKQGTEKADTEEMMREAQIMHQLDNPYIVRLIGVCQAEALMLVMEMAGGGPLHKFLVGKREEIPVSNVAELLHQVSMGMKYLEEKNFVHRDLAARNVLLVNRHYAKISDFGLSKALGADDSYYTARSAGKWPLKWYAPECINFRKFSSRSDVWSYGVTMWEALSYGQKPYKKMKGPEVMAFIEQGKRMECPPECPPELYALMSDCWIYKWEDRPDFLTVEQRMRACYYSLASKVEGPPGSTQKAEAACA
Method: (§1) To further examine the inhibition characteristics of DBH (and its variants) to a variety of cellular components, a poly (Glu, Tyr) 4:1 ELISA was performed. Hymenialdisine (H), DBH (as marine sponge extracts: see Chipman and Faulkner, 1997), and three variant forms of synthetic DBH: the free base form of DBH (DBH-2FB), a trifluoroacetic acid salt form of DBH (DBH-2S), and a methanesulfonic acid salt form of DBH (DBH 1) were solubilized in DMSO, and tested for the ability to inhibit; ZAP-70 (ζ-associated polypeptide of 70 kDa) protein tyrosine kinase, BTK (Bruton's agarnrnaglobulinaemia tyrosine kinase), JAK3 (Janus kinase 3) protein tyrosine kinase, LCK (Lymphoid T-cell protein tyrosine kinase), and IGFR (Insulin-like growth factor receptor) protein tyrosine kinase.
(§2) Maxisorb microtiter plates (Nalge Nunc International, Rochester, N.Y.) were coated with 1 mg/ml Poly(Glu,Tyr) 4:1 (Sigma, St. Louis, Mo.) solubilized in phosphate buffered saline (PBS), 0.02% sodium azide. On the day of the assay, microtiter plates were washed 4× with TBS-Tween (25 mM Tris pH 8.0, 150 mM NaCl, 0.05% Tween 20) using a Skatron plate washer (Skatron Instruments, Sterling, Va.). 200 μl of sterile blocking buffer (3% BSA in PBS, 0.02% sodium azide) was added to each well, and the microtiter plates were incubated at 37° C. for 1 hour. The blocking buffer was removed, the plates washed, and various concentrations of inhibitor were added in a 20 μl volume to the wells. 60 μl of the appropriate substrate mix was then added. Substrate mixes were prepared as described in Table 2:
(§3) Following addition of the substrate mix, 20 μl of the test protein tyrosine kinase (in 1× assay buffer) was added. Kinase reactions were incubated 30 min at 37° C., followed by washes in the Skatron plate washer. 100 μl of biotinylated PT-66 anti-phosphotyrosine monoclonal antibody (Sigma, St. Louis, Mo.) (diluted 1:4000 in 0.5% BSA, sterile-filtered TBS) was added to each well, and incubated for an additional 30 minutes at 37° C. […] The samples were then read at 450 nm in a plate reader.

[2] = target: T2, JAK3 (Janus kinase 3) protein tyrosine kinase (Homo sapiens, UniProt P52333); assay: poly (Glu, Tyr) 4:1 ELISA, JAK3; settings: inhibitors solubilized in DMSO, read-out: ec-50 (effective concentration for 50% inhibition) of JAK3
T2 sequence (P52333 1-1124): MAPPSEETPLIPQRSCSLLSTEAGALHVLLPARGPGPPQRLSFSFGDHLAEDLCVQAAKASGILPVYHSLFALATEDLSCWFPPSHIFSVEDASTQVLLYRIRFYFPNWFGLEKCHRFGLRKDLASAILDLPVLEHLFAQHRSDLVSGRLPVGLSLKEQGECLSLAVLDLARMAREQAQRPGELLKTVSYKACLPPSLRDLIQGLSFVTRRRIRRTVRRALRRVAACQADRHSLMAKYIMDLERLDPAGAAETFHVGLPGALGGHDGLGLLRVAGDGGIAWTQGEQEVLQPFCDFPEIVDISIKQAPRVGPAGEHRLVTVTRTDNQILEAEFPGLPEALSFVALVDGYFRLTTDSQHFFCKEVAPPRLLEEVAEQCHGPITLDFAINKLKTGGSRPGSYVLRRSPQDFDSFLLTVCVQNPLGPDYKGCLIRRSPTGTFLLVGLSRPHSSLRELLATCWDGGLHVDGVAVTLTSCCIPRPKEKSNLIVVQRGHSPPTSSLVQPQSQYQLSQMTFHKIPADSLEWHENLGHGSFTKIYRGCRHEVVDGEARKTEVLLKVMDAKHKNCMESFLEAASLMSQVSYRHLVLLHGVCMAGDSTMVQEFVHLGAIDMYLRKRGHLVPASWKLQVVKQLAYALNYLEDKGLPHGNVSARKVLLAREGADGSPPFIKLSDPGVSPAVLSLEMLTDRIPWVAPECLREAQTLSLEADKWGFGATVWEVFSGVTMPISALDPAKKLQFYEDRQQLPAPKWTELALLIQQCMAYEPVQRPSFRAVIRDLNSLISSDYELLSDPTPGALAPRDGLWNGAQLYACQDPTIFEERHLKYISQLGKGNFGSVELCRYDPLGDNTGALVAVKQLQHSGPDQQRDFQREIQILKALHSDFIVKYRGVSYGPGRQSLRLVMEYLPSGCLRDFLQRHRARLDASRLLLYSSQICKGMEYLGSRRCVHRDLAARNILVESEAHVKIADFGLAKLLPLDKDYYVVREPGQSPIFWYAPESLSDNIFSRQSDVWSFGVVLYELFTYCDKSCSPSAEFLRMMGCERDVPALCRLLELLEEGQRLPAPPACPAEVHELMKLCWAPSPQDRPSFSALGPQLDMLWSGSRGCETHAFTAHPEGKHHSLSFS
Method: as §1, §2, §3

[3] = target: LCK (Lymphoid T-cell protein tyrosine kinase) (Homo sapiens, UniProt P06239); assay: poly (Glu, Tyr) 4:1 ELISA, LCK
Method: as §1, §2, §3

[4] = ec-50 values ranging from hundreds of micromolar to no inhibition (data not shown)

Chain of LCK (Lymphoid T-cell protein tyrosine kinase) (P06239 whole entry, species assumed): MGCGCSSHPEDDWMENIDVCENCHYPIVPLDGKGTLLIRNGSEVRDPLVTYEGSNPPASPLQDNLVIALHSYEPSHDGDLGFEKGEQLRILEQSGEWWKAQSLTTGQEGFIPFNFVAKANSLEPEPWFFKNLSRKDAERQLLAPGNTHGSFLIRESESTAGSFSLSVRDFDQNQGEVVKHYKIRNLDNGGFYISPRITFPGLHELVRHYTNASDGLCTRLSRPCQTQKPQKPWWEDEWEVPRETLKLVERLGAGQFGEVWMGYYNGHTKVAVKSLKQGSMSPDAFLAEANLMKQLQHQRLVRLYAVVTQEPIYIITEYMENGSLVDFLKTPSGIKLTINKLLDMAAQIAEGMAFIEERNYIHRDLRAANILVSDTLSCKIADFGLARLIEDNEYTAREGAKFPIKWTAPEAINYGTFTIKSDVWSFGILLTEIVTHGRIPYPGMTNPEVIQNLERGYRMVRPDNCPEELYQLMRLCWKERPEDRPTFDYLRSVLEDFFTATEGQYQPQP

NC1=NC(=O)C(=C2CCNC(=O)c3[nH]ccc32)N1 [DBH, 4-(2-amino-4-oxo-2-imidazolin-5-ylidene)-4,5,6,7-tetrahydropyrrolo(2,3-c) azepine-8-one]
Inhibition of ZAP-70 [1, 4]: weak | EC50 [2]: 23.4 to 34.4 µM | Inhibition of LCK [3, 4]: weak

NC1=NC(=O)C(=C2CCNC(=O)c3[nH]ccc32)N1 [DBH-2FB]
IC50 ([1]; values for the four kinases range from 1971 μM to no inhibition, read-out: α-50 value for ZAP-70): ≥ 1970 µM | EC50 [2]: 11.6 µM | IC50 ([3]; values for the four kinases range from 1971 μM to no inhibition, read-out: α-50 value for LCK): ≥ 1970 µM
